Tests used:
[1] = tested on: mouse bladder cancer cell MB49; experiment: near-infrared fluorescence observation of bladder after intravesical administration via the urethra, MB49 bladder cancer mouse model; format: in vivo; conditions: into bladder via urethra, after 30 minutes washed with saline five times
Method: Two bladder cancer mouse models (weight: about 20 g), having mouse bladder cancer cell MB49 transplanted in the bladder mucosa, and then grown for 3 weeks or 4 weeks, were used. To the bladder of each of the mice, 0.2 mL of a saline containing the compound III (concentration of the compound III: 0.075 mg/mL) was administered via the urethra, and after 30 minutes, the inside of the bladder was washed via the urethra with saline five times. Thereafter, the mouse was subjected to laparotomy under anesthesia by subcutaneous administration of ketamine (75 mg/kg) and medetomidine (1 mg/kg), and near-infrared fluorescence observation was performed with a near-infrared fluorescence imaging device (pde-neo, manufactured by Hamamatsu Photonics K.K.) (FIG. 3, right: near-infrared fluorescence image).
As a comparative example, a saline containing the compound III was administered to the bladder of a normal mouse (weight: about 20 g) via the urethra, and after 30 minutes, the inside of the bladder was washed via the urethra with saline five times. Thereafter, the mouse was subjected to laparotomy under anesthesia by subcutaneous administration of ketamine (75 mg/kg) and medetomidine (1 mg/kg), and near-infrared fluorescence observation was performed with a near-infrared fluorescence imaging device (pde-neo, manufactured by Hamamatsu Photonics K.K.) (FIG. 4). […]

[2] = tested on: human tongue cancer cells CAL27; experiment: near-infrared fluorescence imaging after topical administration into tumor, human tongue cancer subcutaneous transplant model; format: in vivo; conditions: SCID mouse, 0.02 to 0.1 mL of 1 mg/mL, immediately after and 50 minutes after administration
Method: A human cancer cell transplant model mouse was created as follows: • (Head and neck/tongue cancer) To immunodeficient SCID mice (weight: 17 g to 23 g), about 10^6 human tongue cancer cells CAL27 (purchased from American Type Culture Collection: ATCC) were subcutaneously administered, and the resultant mice were grown for 49 days to create tumor models. • (Brain cancer/neuroblastoma) To immunodeficient SCID mice (weight: 17 g to 23 g), about 10^6 human neuroblastoma cells SH-SY5Y (purchased from ATCC) were subcutaneously administered, and the resultant mice were grown for 90 days to create tumor models. • (Brain cancer/glioblastoma) To immunodeficient SCID mice (weight: 17 g to 23 g), about 10^6 human glioblastoma cells U-251MG (obtained from European Collection of Authenticated Cell Cultures) were subcutaneously administered, and the resultant mice were grown for 90 days to create tumor models.
Subsequently, to the tumor of each of the mouse models, 0.02 to 0.1 mL of a saline containing the compound III (concentration of the compound III: 1 mg/mL) was topically administered, and fluorescence imaging was conducted transdermally with a near-infrared fluorescence camera (Fluobeam, manufactured by Fluoptics) (excitation wavelength: 780 nm, detection wavelength: 800 nm or more).

COC1=C(/C=C/C2=[N+](CCC(=O)NCCCO[C@H]3[C@H]4O[C@H]5[C@H](O)[C@@H](O)[C@@H](O[C@H]6[C@H](O)[C@@H](O)[C@@H](O[C@H]7[C@H](O)[C@@H](O)[C@@H](O[C@H]8[C@H](O)[C@@H](O)[C@@H](O[C@H]9[C@H](O)[C@@H](O)[C@@H](O[C@H]%10[C@H](O)[C@@H](O)[C@@H](O[C@@H]([C@@H]3O)[C@@H](CO)O4)O[C@@H]%10CO)O[C@@H]9CO)O[C@@H]8CO)O[C@@H]7CO)O[C@@H]6CO)O[C@@H]5CO)c3ccc4ccccc4c3C2(C)C)CCC/C1=C\C=C1\N(CCC(=O)NCCCO[C@H]2[C@H]3O[C@H]4[C@H](O)[C@@H](O)[C@@H](O[C@H]5[C@H](O)[C@@H](O)[C@@H](O[C@H]6[C@H](O)[C@@H](O)[C@@H](O[C@H]7[C@H](O)[C@@H](O)[C@@H](O[C@H]8[C@H](O)[C@@H](O)[C@@H](O[C@H]9[C@H](O)[C@@H](O)[C@@H](O[C@@H]([C@@H]2O)[C@@H](CO)O3)O[C@@H]9CO)O[C@@H]8CO)O[C@@H]7CO)O[C@@H]6CO)O[C@@H]5CO)O[C@@H]4CO)c2ccc3ccccc3c2C1(C)C.[Cl-] [compound III, 3-(3-{[3-(cyclomaltoheptaose-21-O-yl)propyl]amino}-3-oxopropyl)-2-{(1E)-2-[(3E)-3-{(2E)-2-[3-(3-{[3-(cyclomaltoheptaose-21-O-yl)propyl]amino}-3-oxopropyl)-1,1-dimethyl-1,3-dihydro-2H-benzo[e]indol-2-ylidene]ethylidene}-2-methoxycyclohexa-1-en-1-yl]ethene-1-yl}-1,1-dimethyl-1H-benzo[e]indol-3-ium chloride]
near-infrared fluorescence in cancer tissue of the bladder ([1]; MB49 bladder cancer mouse model, 0.2 mL 0.075 mg/mL): specifically observed
near-infrared fluorescence of normal tissue (bladder) ([1]; normal mouse): did not emit near-infrared fluorescence
retention inside the tumor (fluorescence imaging) [2]: retained inside the tumor
